For this test, the target named is T1, GluD2-A654T-R710W (Rattus norvegicus, UniProt Q63226, A654T/R710W).
T1 construct: expressed in transfected cells; host or cells: Xenopus laevis oocytes injected with cRNA
T1 sequence (Q63226 24-1007 A654T/R710W): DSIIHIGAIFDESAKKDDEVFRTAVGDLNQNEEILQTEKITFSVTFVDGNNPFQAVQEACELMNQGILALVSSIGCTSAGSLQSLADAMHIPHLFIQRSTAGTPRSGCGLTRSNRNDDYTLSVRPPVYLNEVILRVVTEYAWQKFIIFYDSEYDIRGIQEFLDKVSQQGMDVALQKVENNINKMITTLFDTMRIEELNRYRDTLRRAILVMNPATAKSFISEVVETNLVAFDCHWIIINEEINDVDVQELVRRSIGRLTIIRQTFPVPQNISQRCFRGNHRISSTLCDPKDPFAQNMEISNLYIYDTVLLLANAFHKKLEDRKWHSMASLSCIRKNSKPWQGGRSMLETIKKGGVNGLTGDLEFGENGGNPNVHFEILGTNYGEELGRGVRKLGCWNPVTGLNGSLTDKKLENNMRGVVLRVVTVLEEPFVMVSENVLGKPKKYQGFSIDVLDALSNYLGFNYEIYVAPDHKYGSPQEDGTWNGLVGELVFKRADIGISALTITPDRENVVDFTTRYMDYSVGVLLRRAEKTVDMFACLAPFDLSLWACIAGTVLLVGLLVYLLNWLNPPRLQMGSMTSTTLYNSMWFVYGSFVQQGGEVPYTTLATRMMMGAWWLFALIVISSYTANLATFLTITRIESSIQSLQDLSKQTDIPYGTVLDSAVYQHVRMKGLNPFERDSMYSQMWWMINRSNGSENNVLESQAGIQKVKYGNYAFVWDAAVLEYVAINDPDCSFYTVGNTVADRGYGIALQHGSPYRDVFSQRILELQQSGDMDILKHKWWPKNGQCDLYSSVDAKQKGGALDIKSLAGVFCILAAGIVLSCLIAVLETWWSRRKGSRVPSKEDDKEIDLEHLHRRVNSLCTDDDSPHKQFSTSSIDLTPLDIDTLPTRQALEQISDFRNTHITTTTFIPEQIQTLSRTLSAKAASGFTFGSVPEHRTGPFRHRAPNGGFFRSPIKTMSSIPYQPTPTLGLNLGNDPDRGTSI
In words: TEVC of constitutive current, Xenopus oocytes expressing GluD2-A654T-R710W. Format: cell-based. An excerpt:
Human GluD1 (GRID1) and rat GluD2 (Grid2) cDNAs were introduced into the pGEM-HE and pCI-neo vectors. GRID1 (NM_017551.3) gene fragments were synthesized by Integrated DNA Technologies and cloned into empty vectors using InFusion cloning (Clontech). […] However, rat and human GluD2-encoding cDNA are identical in the M3 domain in which many of the variants we studied reside (see Supplementary Fig. S1). The full open reading frame for both constructs were verified by Sanger sequencing (Eurofins) and the full plasmid sequence was verified by whole plasmid sequencing (plasmidsaurus). Variant cDNA changes identified in patients were introduced into the cloned human GRID1 (NM_017551.3) in pGEM-HE and cloned rat Grid2 cDNA sequence (NM_024379.1) in pGEM-HE vector using Quikchange Lightning (Agilent) protocol according to the manufacturer’s instructions. Vectors were linearized and cRNA was synthesized using T7 RNA mMESSAGE kit (Invitrogen).
Xenopus laevis oocytes were prepared from ovaries purchased from Xenopus 1 (Dexter, MI) as previously described, [68] and incubated at 16°C in culture Barth’s solution (in mM) 88 NaCl, 2.4 NaHCO3, 1 KCl, 0.33 Ca(NO3)2, 0.41 CaCl2, 0.82 MgSO4, 10 HEPES, pH 7.4 with NaOH, supplemented with 1 U/ml penicillin and 1 μg/ml streptomycin. Oocytes were injected with approximately 5–40 ng RNA per oocyte and then incubated at 16–19°C for 1–3 days in culture Barth’s solution. […] Two-electrode voltage clamp (TEVC) recordings were performed as previously described. Unless otherwise specified, extracellular solution contained (in mM) 90 NaCl, 3 KCl, 0.5 BaCl2, 0.01 EDTA, 10 HEPES, and was brought to pH 7.4 with NaOH. The oocytes were placed in a dual track recording chamber and gravity perfused with solution exchange controlled via a computer-driven 8-valve positioner (Digital MVP Valve). […] Recording electrodes were filled with 0.3 M KCl, and currents were recorded with membrane voltage held at −40 mV. To establish constitutive activity of recombinant receptors when compared to wild type receptors, we used the oocyte recording solution described above, but with 90 mM N-methyl-D-glucamine (NMDG) chloride replacing 90 mM NaCl. […] For Ca^2+ concentration-response curves, choline chloride was used to maintain equimolar concentrations of Cl^− ions in the extracellular solution across the changing concentrations of calcium chloride. All compounds used in this study for concentration-response oocyte recordings were dissolved in deionized water as 50–100 mM stock solutions. In some rescue pharmacology experiments, we substituted 1 mM CaCl2 for 0.5 mM BaCl2 to evaluate Ca^2+-dependent control of receptor responses.

The structures appear in SMILES notation.

One may read the EC50 as the midpoint of the concentration-response curve. With `[Ca+2]` [Ca^2+], under “compared to GluD2-A654T controls”, the “Effect on constitutive current, in words” value is reported as “increased Ca^2+ potency”. The “Ca2+ % Max (NMDG+ − Na+) Mean ± SEM” value (normalized to NMDG+ − Na+ difference current) is 245 ± 15 (9) %. The EC50 (potentiation of constitutive current, read-out: Ca2+ EC50 [95% CI]) came to 80 µM. The “Ca2+ EC50 A654T/EC50 variant” value (ratio) is listed as 1.88.
Regarding `N[C@H](CO)C(=O)O` [D-serine], the “D-serine % Max (NMDG+ − Na+) Mean ± SEM” value (percent of constitutive leak current (NMDG+/Na+ difference current)) is given as 42 ± 3.5 (14) %.
